From patent publication US11759462B2, “Spirocyclic compounds as tryptophan hydroxylase inhibitors” (priority 2013, dated 2023)

Each compound was assayed against T1, Recombinant human TPH1 (MBP tagged) (Homo sapiens, UniProt P17752) (assay: TPH1 in vitro inhibition assay (kinetic fluorescence)). Settings: TPH1 Range (TPH1 inhibition IC50).
T1 construct: cloning full length human TPH1 cDNA in to a bacterial pMAL-c5E expression vector; made in house; host or cells: E. coli BL21 (DE3)
T1 sequence (P17752 1-444): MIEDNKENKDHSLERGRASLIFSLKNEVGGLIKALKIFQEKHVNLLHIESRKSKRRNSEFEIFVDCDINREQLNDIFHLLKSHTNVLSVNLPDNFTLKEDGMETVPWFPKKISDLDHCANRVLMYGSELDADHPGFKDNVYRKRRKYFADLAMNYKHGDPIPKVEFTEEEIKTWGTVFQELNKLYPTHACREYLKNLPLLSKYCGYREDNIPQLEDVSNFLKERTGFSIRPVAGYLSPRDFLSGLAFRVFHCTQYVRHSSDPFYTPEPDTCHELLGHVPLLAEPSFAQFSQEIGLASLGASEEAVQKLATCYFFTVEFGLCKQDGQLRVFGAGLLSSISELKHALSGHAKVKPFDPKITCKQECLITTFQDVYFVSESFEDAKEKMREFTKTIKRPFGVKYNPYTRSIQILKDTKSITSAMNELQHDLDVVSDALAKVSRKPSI
Format: biochemical
Summary of the method: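 Final mix: 15 nM MBP-TPH1, 30 μM Trp, 36 μM 6-methyltetrahydropterin, 25 μM ferrous ammonium sulfate, 50 mM MES pH 7.1, 1% DMSO, room temperature.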

IC50 [nM]	Structure (SMILES)
< 50	CSc1ccc2cc(-c3ccc([C@@H](Oc4cc(N5CCC6(CC5)CN[C@H](C(=O)O)C6)nc(N)n4)C(F)(F)F)cc3)ccc2n1 [Example 55ai, (S)-8-(2-amino-6-((R)-2,2,2-trifluoro-1-(4-(2-(methylthio)quinolin-6-yl)phenyl)ethoxy)pyrimidin-4-yl)-2,8-diazaspiro[4.5]decane-3-carboxylic acid]
< 50	Cn1ncc2cc(-c3ccc([C@@H](Oc4cc(N5CCC6(CC5)CN[C@H](C(=O)O)C6)nc(N)n4)C(F)(F)F)cc3)ccc21 [Example 55b, (S)-8-(2-amino-6-((R)-2,2,2-trifluoro-1-(4-(1-methyl-1H-indazol-5-yl)phenyl)ethoxy)pyrimidin-4-yl)-2,8-diazaspiro[4.5]decane-3-carboxylic acid]
< 50	Cc1nn(C)c2cc(-c3ccc([C@@H](Oc4cc(N5CCC6(CC5)CN[C@H](C(=O)O)C6)nc(N)n4)C(F)(F)F)cc3)ccc12 [Example 55ba, (S)-8-(2-amino-6-((R)-1-(4-(1,3-dimethyl-1H-indazol-6-yl)phenyl)-2,2,2-trifluoroethoxy)pyrimidin-4-yl)-2,8-diazaspiro[4.5]decane-3-carboxylic acid]

Same assay, conditions: read-out: TPH1 Range (TPH1 inhibition IC50)

IC50 [nM]	Structure (SMILES)
300 to 3000	Nc1nc(O[C@H](c2ccc(-c3ccc4ccc(=O)oc4c3)cc2)C(F)(F)F)cc(N2CCC3(CC2)CN[C@H](C(=O)O)C3)n1 [Example 55ae, (S)-8-(2-amino-6-((R)-2,2,2-trifluoro-1-(4-(2-oxo-2H-chromen-7-yl)phenyl)ethoxy)pyrimidin-4-yl)-2,8-diazaspiro[4.5]decane-3-carboxylic acid]
300 to 3000	Cn1cc(-c2ccc([C@@H](Oc3cc(N4CCC5(CC4)CN[C@H](C(=O)O)C5)nc(N)n3)C(F)(F)F)cc2)ccc1=O [Example 55af, (S)-8-(2-amino-6-((R)-2,2,2-trifluoro-1-(4-(1-methyl-6-oxo-1,6-dihydropyridin-3-yl)phenyl)ethoxy)pyrimidin-4-yl)-2,8-diazaspiro[4.5]decane-3-carboxylic acid]
50 to 300	Nc1nc(O[C@H](c2ccc(-c3ccc(C(=O)O)c(O)c3)cc2)C(F)(F)F)cc(N2CCC3(CC2)CN[C@H](C(=O)O)C3)n1 [Example 55ag, (S)-8-(2-amino-6-((R)-1-(4′-carboxy-3′-hydroxy-[1,1′-biphenyl]-4-yl)-2,2,2-trifluoroethoxy)pyrimidin-4-yl)-2,8-diazaspiro[4.5]decane-3-carboxylic acid]
50 to 300	COc1ccc2cc(-c3ccc([C@@H](Oc4cc(N5CCC6(CC5)CN[C@H](C(=O)O)C6)nc(N)n4)C(F)(F)F)cc3)ccc2n1 [Example 55ah, (S)-8-(2-amino-6-((R)-2,2,2-trifluoro-1-(4-(2-methoxyquinolin-6-yl)phenyl)ethoxy)pyrimidin-4-yl)-2,8-diazaspiro[4.5]decane-3-carboxylic acid]
50 to 300	CN1C(=O)CCc2cc(-c3ccc([C@@H](Oc4cc(N5CCC6(CC5)CN[C@H](C(=O)O)C6)nc(N)n4)C(F)(F)F)cc3)ccc21 [Example 55aj, (S)-8-(2-amino-6-((R)-2,2,2-trifluoro-1-(4-(1-methyl-2-oxo-1,2,3,4-tetrahydroquinolin-6-yl)phenyl)ethoxy)pyrimidin-4-yl)-2,8-diazaspiro[4.5]decane-3-carboxylic acid]
50 to 300	COc1cc(F)cc(-c2ccc([C@@H](Oc3cc(N4CCC5(CC4)CN[C@H](C(=O)O)C5)nc(N)n3)C(F)(F)F)cc2)c1 [Example 55ao, (S)-8-(2-amino-6-((R)-2,2,2-trifluoro-1-(3′-fluoro-5′-methoxy-[1,1′-biphenyl]-4-yl)ethoxy)pyrimidin-4-yl)-2,8-diazaspiro[4.5]decane-3-carboxylic acid]
50 to 300	Nc1nc(O[C@H](c2ccc(-c3cc(F)cc(F)c3)cc2)C(F)(F)F)cc(N2CCC3(CC2)CN[C@H](C(=O)O)C3)n1 [Example 55ap, (S)-8-(2-amino-6-((R)-1-(3′,5′-difluoro-[1,1′-biphenyl]-4-yl)-2,2,2-trifluoroethoxy)pyrimidin-4-yl)-2,8-diazaspiro[4.5]decane-3-carboxylic acid]
50 to 300	COc1ccc(-c2ccc([C@@H](Oc3cc(N4CCC5(CC4)CN[C@H](C(=O)O)C5)nc(N)n3)C(F)(F)F)cc2)cc1 [Example 55aq, (S)-8-(2-amino-6-((R)-2,2,2-trifluoro-1-(4′-methoxy-[1,1′-biphenyl]-4-yl)ethoxy)pyrimidin-4-yl)-2,8-diazaspiro[4.5]decane-3-carboxylic acid]
50 to 300	COc1ccccc1-c1ccc([C@@H](Oc2cc(N3CCC4(CC3)CN[C@H](C(=O)O)C4)nc(N)n2)C(F)(F)F)cc1 [Example 55ar, (S)-8-(2-amino-6-((R)-2,2,2-trifluoro-1-(2′-methoxy-[1,1′-biphenyl]-4-yl)ethoxy)pyrimidin-4-yl)-2,8-diazaspiro[4.5]decane-3-carboxylic acid]
50 to 300	Nc1nc(O[C@H](c2ccc(-c3cccc(C(F)(F)F)c3)cc2)C(F)(F)F)cc(N2CCC3(CC2)CN[C@H](C(=O)O)C3)n1 [Example 55as, (S)-8-(2-amino-6-((R)-2,2,2-trifluoro-1-(3′-(trifluoromethyl)-[1,1′-biphenyl]-4-yl)ethoxy)pyrimidin-4-yl)-2,8-diazaspiro[4.5]decane-3-carboxylic acid]
50 to 300	Nc1nc(O[C@H](c2ccc(-c3cccc(OC(F)(F)F)c3)cc2)C(F)(F)F)cc(N2CCC3(CC2)CN[C@H](C(=O)O)C3)n1 [Example 55at, (S)-8-(2-amino-6-((R)-2,2,2-trifluoro-1-(3′-(trifluoromethoxy)-[1,1′-biphenyl]-4-yl)ethoxy)pyrimidin-4-yl)-2,8-diazaspiro[4.5]decane-3-carboxylic acid]
50 to 300	CCOc1cccc(-c2ccc([C@@H](Oc3cc(N4CCC5(CC4)CN[C@H](C(=O)O)C5)nc(N)n3)C(F)(F)F)cc2)c1 [Example 55au, (S)-8-(2-amino-6-((R)-1-(3′-ethoxy-[1,1′-biphenyl]-4-yl)-2,2,2-trifluoroethoxy)pyrimidin-4-yl)-2,8-diazaspiro[4.5]decane-3-carboxylic acid]
50 to 300	CC(C)Oc1cccc(-c2ccc([C@@H](Oc3cc(N4CCC5(CC4)CN[C@H](C(=O)O)C5)nc(N)n3)C(F)(F)F)cc2)c1 [Example 55av, (S)-8-(2-amino-6-((R)-2,2,2-trifluoro-1-(3′-isopropoxy-[1,1′-biphenyl]-4-yl)ethoxy)pyrimidin-4-yl)-2,8-diazaspiro[4.5]decane-3-carboxylic acid]
300 to 3000	Nc1nc(O[C@H](c2ccc(-c3cccnc3)cc2)C(F)(F)F)cc(N2CCC3(CC2)CN[C@H](C(=O)O)C3)n1 [Example 55aw, (S)-8-(2-amino-6-((R)-2,2,2-trifluoro-1-(4-(pyridin-3-yl)phenyl)ethoxy)pyrimidin-4-yl)-2,8-diazaspiro[4.5]decane-3-carboxylic acid]
50 to 300	Nc1nc(O[C@H](c2ccc(-c3ccncc3)cc2)C(F)(F)F)cc(N2CCC3(CC2)CN[C@H](C(=O)O)C3)n1 [Example 55ax, (S)-8-(2-amino-6-((R)-2,2,2-trifluoro-1-(4-(pyridin-4-yl)phenyl)ethoxy)pyrimidin-4-yl)-2,8-diazaspiro[4.5]decane-3-carboxylic acid]
300 to 3000	Nc1nc(O[C@H](c2ccc(-c3cncnc3)cc2)C(F)(F)F)cc(N2CCC3(CC2)CN[C@H](C(=O)O)C3)n1 [Example 55ay, (S)-8-(2-amino-6-((R)-2,2,2-trifluoro-1-(4-(pyrimidin-5-yl)phenyl)ethoxy)pyrimidin-4-yl)-2,8-diazaspiro[4.5]decane-3-carboxylic acid]
